# Target: T1, mouse TRPV2 (Mus musculus, UniProt Q9WTR1)
# T1 construct: expressed in transfected cells; host or cells: HEK293
# T1 sequence (Q9WTR1 1-756): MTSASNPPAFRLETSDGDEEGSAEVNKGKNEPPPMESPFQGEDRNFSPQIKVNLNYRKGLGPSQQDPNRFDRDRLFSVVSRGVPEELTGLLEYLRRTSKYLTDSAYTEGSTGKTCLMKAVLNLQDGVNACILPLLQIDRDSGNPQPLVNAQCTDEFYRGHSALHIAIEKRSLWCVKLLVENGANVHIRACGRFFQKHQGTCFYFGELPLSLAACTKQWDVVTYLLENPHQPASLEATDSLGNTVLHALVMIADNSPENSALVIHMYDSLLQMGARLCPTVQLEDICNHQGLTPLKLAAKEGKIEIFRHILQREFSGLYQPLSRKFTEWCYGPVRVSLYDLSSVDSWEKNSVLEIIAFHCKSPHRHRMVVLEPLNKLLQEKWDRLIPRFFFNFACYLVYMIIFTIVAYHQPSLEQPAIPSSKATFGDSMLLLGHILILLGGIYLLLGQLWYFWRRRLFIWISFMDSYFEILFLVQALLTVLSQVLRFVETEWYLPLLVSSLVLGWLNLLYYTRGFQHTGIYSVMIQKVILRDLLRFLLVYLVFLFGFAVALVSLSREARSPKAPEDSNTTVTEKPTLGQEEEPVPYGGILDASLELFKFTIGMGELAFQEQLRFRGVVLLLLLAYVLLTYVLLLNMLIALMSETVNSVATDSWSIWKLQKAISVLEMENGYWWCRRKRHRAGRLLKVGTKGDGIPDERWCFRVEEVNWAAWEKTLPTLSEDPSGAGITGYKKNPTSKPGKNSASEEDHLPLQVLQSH
# Assay: fluo-4 Ca2+ assay selectivity, HEK cells expressing mouse TRPV2
# Assay type: cell-based
# Details: concentrations up to 50 μM
# Text: KU-19-19 (DSMZ no. ACC 395), CAL-29 (DSMZ no. ACC 515), 647-V (DSMZ no. ACC 414), RT-4 (DSMZ no. ACC 412), and RT-112 (DSMZ no. ACC 418) bladder cancer cell lines were obtained from the Leibniz Institute DSMZ (German Collection of Microorganisms and Cell Cultures). Human TRPV3 (NM_145068, purchased from OriGene) and mouse TRPV3 (NM_001371006), rat TRPV1, mouse TRPV2, mouse TRPV4, human TRPM2, human TRPM8, and human TRPA1 were stably transfected in HEK293 cells as described before.[27] […]
# All fluorometric Ca^2+ assays were performed in HBS buffer at room temperature. […] For the primary compound screening and the generation of concentration-response analyses, a robotic liquid handling station (Freedom Evo 150; Tecan) with a built-in custom-made fluorescence plate imager was used. […] Fluorescence was excited using a 470-nm light-emitting diode, and emitted light was imaged through a 515-nm–long pass filter with a cooled Zyla 5.5 camera (Andor). Fluorescence was recorded and processed under the control of the μ-Manager 2.0 gamma software (https://micro-manager.org.[28]). After recording baseline fluorescence, compounds were dispensed into the wells via the liquid handling device. […] For further analysis, fluorescence signals were calculated for each well, corrected for background intensities and normalized to the initial signals. […]
smiles,measurement,value
COC(=O)C12CN(Cc3ccccc3)CC1(C(=O)OC)CN(Cc1ccccc1)C2 (stereo not shown) [AV3-1],effect on TRPV2,no effect

# Reference: publication PMC12881674, “Activation of TRPV3 channels in bladder cancer cells stimulates ATP release” (Molecular Pharmacology, 2025)
